Here are results for 53 compounds from patent publication US8088927B2, “Fungicide N-cycloalkyl-benzyl-amide derivatives” (Bayer Cropscience AG, priority 2006, dated 2012).

A short description of the first data set: log P determination by HPLC on reversed-phase column (C 18), EEC Directive 79/831 Annex V.A8. As to conditions: HPLC on reversed-phase column (C 18). The format is physicochemical. The protocol:
Temperature: 40° C.; Mobile phases: 0.1% aqueous formic acid and acetonitrile; linear gradient from 10% acetonitrile to 90% acetonitrile.
Calibration was carried out using unbranched alkan-2-ones (comprising 3 to 16 carbon atoms) with known log P values (determination of the log P values by the retention times using linear interpolation between two successive alkanones).
In general, LogP refers to a log measure of how a compound divides between an organic and an aqueous phase. Higher therefore signals a more lipophilic compound. Take `Cc1nc(C(F)(F)F)c(C(=O)N(Cc2ccc(Cl)cc2Cl)C2CC2)s1` [Compound 168]: the lipophilicity (LogP) is 4.19.

Compound `Cc1nc(C(F)F)c(C(=O)N(Cc2ccc(Cl)cc2Cl)C2CC2)s1` [Compound 169] came in with a LogP of 3.74.

For the compound `Cc1nc(C(F)(F)F)c(C(=O)N(Cc2c(Cl)cc(Cl)cc2Cl)C2CC2)s1` [Compound 170], the LogP came out at 4.52.

As for `Cc1nc(C(F)F)c(C(=O)N(Cc2c(Cl)cc(Cl)cc2Cl)C2CC2)s1` [Compound 171], the LogP came out at 4.1.

The compound `Cc1nc(C(F)F)c(C(=O)N(Cc2ccc(C(F)(F)F)cc2)C2CC2)s1` [Compound 172] came in with a LogP of 3.37.

`Cc1nc(C(F)F)c(C(=O)N(C2CC2)C(C)c2ccc(Cl)cc2Cl)s1` (stereo not drawn) [Compound 173] had a LogP of 3.9.

Take `Cc1nc(C(F)F)c(C(=O)N(C2CC2)C(C#N)c2ccc(Cl)cc2Cl)s1` (stereo not drawn) [Compound 209]: the LogP stood at 3.61.

Regarding `Cc1nc(C(F)F)c(C(=O)N(C2CC2)C(C#N)c2c(Cl)cccc2Cl)s1` (stereo not drawn) [Compound 213], the LogP came out at 3.14.

Turning to `Cc1nn(C)c(F)c1C(=O)N(Cc1ccc(Cl)cc1Cl)C1CC1` [Compound 236], the LogP stood at 3.04.

In turn, `Cc1nn(C)c(F)c1C(=O)N(Cc1ccc(C(F)(F)F)cc1)C1CC1` [Compound 237, N-(4-trifluoromethyl-benzyl)-N-cyclopropyl-5-fluoro-1,3-dimethyl-1H-pyrazole-4-carboxamide] registered a LogP of 2.8.

The compound `Cc1nn(C)c(F)c1C(=O)N(Cc1c(Cl)cc(Cl)cc1Cl)C1CC1` [Compound 238] gave a LogP of 3.32.

Compound `Cn1cc(C(=O)N(Cc2ccc(Cl)cc2Cl)C2CC2)c(C(F)F)n1` [Compound 241] returned a LogP of 3.27.

For `Cn1cc(C(=O)N(Cc2ccc(C(F)(F)F)cc2)C2CC2)c(C(F)F)n1` [Compound 242], the LogP was determined as 2.98.

Regarding `Cn1cc(C(=O)N(Cc2c(Cl)cc(Cl)cc2Cl)C2CC2)c(C(F)F)n1` [Compound 243], the LogP worked out at 3.46.

For `Cn1cc(C(=O)N(Cc2ccc(Oc3ccccc3)cc2)C2CC2)c(C(F)F)n1` [Compound 244], the LogP is on record as 3.37.

`CC(c1ccc(Cl)cc1Cl)N(C(=O)c1cn(C)nc1C(F)F)C1CC1` (stereo not drawn) [Compound 245]: the LogP came out at 3.31.

On to `CC(c1ccc(C(F)(F)F)cc1)N(C(=O)c1cn(C)nc1C(F)F)C1CC1` (stereo not drawn) [Compound 246], for which the LogP stood at 3.27.

`COc1nn(C)cc1C(=O)N(Cc1ccc(Cl)cc1Cl)C1CC1` [Compound 251] gave a log partition coefficient (LogP) of 2.81.

Regarding `Cn1cc(C(=O)N(Cc2ccc(Cl)cc2Cl)C2CC2)c(C(F)(F)F)n1` [Compound 252], the LogP is on record as 3.58.

With `CCOc1nn(C)cc1C(=O)N(Cc1ccc(Cl)cc1Cl)C1CC1` [Compound 253], the lipophilicity (LogP) stood at 3.22.

Take `Cn1cc(C(=O)N(Cc2ccc(Cl)cc2Cl)C2CC2)c(I)n1` [Compound 254]: the LogP is reported as 3.15.

On to `COc1nn(C)cc1C(=O)N(Cc1c(Cl)cc(Cl)cc1Cl)C1CC1` [Compound 255], for which the LogP stood at 2.97.

As to `Cn1cc(C(=O)N(Cc2c(Cl)cc(Cl)cc2Cl)C2CC2)c(C(F)(F)F)n1` [Compound 256], the LogP amounted to 3.78.

With `CCOc1nn(C)cc1C(=O)N(Cc1c(Cl)cc(Cl)cc1Cl)C1CC1` [Compound 257], the LogP amounted to 3.35.

`Cn1cc(C(=O)N(Cc2c(Cl)cc(Cl)cc2Cl)C2CC2)c(I)n1` [Compound 258] came in with a LogP of 3.34.

Take `COc1nn(C)cc1C(=O)N(Cc1ccc(C(F)(F)F)cc1)C1CC1` [Compound 259]: the LogP amounted to 2.61.

Compound `Cn1cc(C(=O)N(Cc2ccc(C(F)(F)F)cc2)C2CC2)c(C(F)(F)F)n1` [Compound 260] gave a LogP of 3.29.

As for `CCOc1nn(C)cc1C(=O)N(Cc1ccc(C(F)(F)F)cc1)C1CC1` [Compound 261], the LogP came to 2.92.

Compound `Cn1cc(C(=O)N(Cc2ccc(C(F)(F)F)cc2)C2CC2)c(I)n1` [Compound 262] displayed a LogP of 2.92.

With `Cc1nn(C)c(F)c1C(=O)N(C1CC1)C(C)c1ccc(Cl)cc1Cl` (stereo not drawn) [Compound 263], the LogP is on record as 3.19.

`COc1nn(C)cc1C(=O)N(C1CC1)C(C)c1ccc(Cl)cc1Cl` (stereo not drawn) [Compound 264] gave a LogP of 2.83.

The compound `CCOc1nn(C)cc1C(=O)N(C1CC1)C(C)c1ccc(Cl)cc1Cl` (stereo not drawn) [Compound 265] came in with a LogP of 3.19.

Compound `CC(c1ccc(Cl)cc1Cl)N(C(=O)c1cn(C)nc1I)C1CC1` (stereo not drawn) [Compound 266] had a LogP of 3.22.

As to `COC(=O)C(c1ccccc1Cl)N(C(=O)c1c(C)nn(C)c1F)C1CC1` (stereo not drawn) [Compound 383], the LogP stood at 2.57.

On to `Cc1nn(C)c(F)c1C(=O)N(C1CC1)C(C#N)c1ccc(Cl)cc1Cl` (stereo not drawn) [Compound 385], for which the LogP came to 3.15.

`CCC(c1ccc(Cl)cc1Cl)N(C(=O)c1c(C)nn(C)c1F)C1CC1` (stereo not drawn) [Compound 386] came in with a LogP of 3.53.

For the compound `Cc1nn(C)c(F)c1C(=O)N(Cc1cccc(Br)c1)C1CC1` [Compound 412], the LogP is 2.66.

With `Cc1nn(C)c(F)c1C(=O)N(Cc1ccc(Br)cc1)C1CC1` [Compound 422], the LogP is given as 2.67.

In turn, `COC(c1ccc(Cl)cc1Cl)N(C(=O)c1c(C)nn(C)c1F)C1CC1` (stereo not drawn) [Compound 500] yielded a LogP of 2.96.

`Cn1cnc(C(=O)N(Cc2c(Cl)cc(Cl)cc2Cl)C2CC2)c1` [Compound 503] showed a LogP of 2.40.

Take `CCn1nc(C)c(Br)c1C(=O)N(Cc1c(Cl)cc(Cl)cc1Cl)C1CC1` [Compound 541]: the LogP is reported as 2.4.

Still in this data set, the particulars now being: HPLC, C 18, 40° C., 0.1% aqueous formic acid and acetonitrile gradient.
With `Cc1occc1C(=O)N(Cc1ccc(Cl)cc1Cl)C1CC1` [Compound 11], the LogP is listed as 3.77.

Compound `Cc1cc(C(=O)N(Cc2ccc(Cl)cc2Cl)C2CC2)c(C(F)(F)F)o1` [Compound 12] showed a LogP of 4.6.

In the case of `Cc1occc1C(=O)N(Cc1c(Cl)cc(Cl)cc1Cl)C1CC1` [Compound 13], the lipophilicity (LogP) came out at 4.09.

`Cc1cc(C(=O)N(Cc2c(Cl)cc(Cl)cc2Cl)C2CC2)c(C(F)(F)F)o1` [Compound 14] had a LogP of 4.91.

Take `Cc1occc1C(=O)N(Cc1ccc(C(F)(F)F)cc1)C1CC1` [Compound 15]: the LogP came out at 3.43.

`Cc1cc(C(=O)N(Cc2ccc(C(F)(F)F)cc2)C2CC2)c(C(F)(F)F)o1` [Compound 16] gave a LogP of 4.18.

Compound `O=C(c1sccc1I)N(Cc1ccc(Cl)cc1Cl)C1CC1` [Compound 58] gave a LogP of 4.48.

Turning to `O=C(c1sccc1I)N(Cc1c(Cl)cc(Cl)cc1Cl)C1CC1` [Compound 59], the LogP came to 4.86.

Regarding `O=C(c1sccc1I)N(Cc1ccc(C(F)(F)F)cc1)C1CC1` [Compound 60], the LogP was 4.04.

In the case of `Cn1cc(C(=O)N(Cc2ccc(Cl)cc2Cl)C2CC2)c(C(F)(F)F)c1` [Compound 98], the LogP came to 3.88.

For the compound `Cn1cc(C(=O)N(Cc2c(Cl)cc(Cl)cc2Cl)C2CC2)c(C(F)(F)F)c1` [Compound 99], the LogP is recorded as 4.08.

For `Cn1cc(C(=O)N(Cc2ccc(C(F)(F)F)cc2)C2CC2)c(C(F)(F)F)c1` [Compound 100], the LogP worked out at 3.55.

Staying with this data set, now noted: reversed-phase HPLC column (C 18); HPLC, C 18, 40° C., 0.1% aqueous formic acid and acetonitrile gradient.
In general, chromatographic logP refers to lipophilicity estimated from chromatographic retention. `Cc1nn(C)c(F)c1C(=O)N(Cc1ccc(C(F)(F)F)cc1)C1CC1` [Compound 237, N-(4-trifluoromethyl-benzyl)-N-cyclopropyl-5-fluoro-1,3-dimethyl-1H-pyrazole-4-carboxamide]: the chromatographic logP is 2.8.
